Values quoted from earlier work, collected in publication PMC3387528 (Journal of the American Chemical Society, 2011).

Experiments:
dsDNA = details: substrate dsDNA; no coreagents; pH 7.0, 37 °C; ref [22]
[1] = test system: ApA (adenylyl(3′-5′)adenosine); details: substrate ApA; no coreagents; pH 7.2, 30 °C; ref [28]

Row | SMILES | k2, expressed as kcat/KM (dsDNA) | k2, second-order rate constant [1]
1 | [Eu+3] [Eu^3+] | 108 ^b M^−1 min^−1 | 
2 | [Cl][Lu]([Cl])[Cl] [LuCl3] |  | 0.633 M⁻¹ s⁻¹
